# How the values were obtained:
# AR target genes = test: Microarray genetic profile in LNCaP cells
# [1] = biological target: T1, AR binding to PSA and FKBP5 enhancer (Homo sapiens, UniProt P10275, T878A); test: Chromatin immunoprecipitation (ChIP) in LNCaP cells; type: cell-based; settings: R1881, 24 h
# T1 construct: endogenous in cells; host or cells: LNCaP (LN-ARR2PB-eGFP reporter line for A1; parental LNCaP for ChIP)
# Stability in media = type: physicochemical
# AR AF2 site = AR AF2 site (Homo sapiens, UniProt P10275); test: SRC2-3 peptide displacement assay (fluorescence polarization); type: binding
# Method: 6. SRC2-3 peptide displacement assay: The AR AF2 specific peptide displacement was assayed as previously described.
# [2] = biological target: T2, AR hormone binding site (recombinant wild type LBD) (Rattus norvegicus, UniProt P15207); test: Androgen displacement assay (Polar Screen Androgen Receptor Competitor Green Assay Kit)
# T2 construct: displace DHT from the ABS site of recombinant wild type LBD
# T2 sequence (P15207 651-882 limits assumed): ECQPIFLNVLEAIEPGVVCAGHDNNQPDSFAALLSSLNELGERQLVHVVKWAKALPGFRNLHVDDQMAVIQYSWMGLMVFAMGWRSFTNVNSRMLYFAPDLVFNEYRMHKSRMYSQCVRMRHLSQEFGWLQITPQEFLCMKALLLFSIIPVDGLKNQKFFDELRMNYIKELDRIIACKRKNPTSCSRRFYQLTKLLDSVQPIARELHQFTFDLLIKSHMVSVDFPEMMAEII
# Method: 5. Androgen displacement assay: The androgen displacement was assessed with the Polar Screen Androgen Receptor Competitor Green Assay Kit as per the instructions of the manufacturer (Lack, Axerio-Cilies et al. 2011).
# The ability of the above chemicals to displace DHT from the ABS site of recombinant wild type LBD was measured using a fluorescent polarization assay (PolarScreen™, Life Technologies) at various concentrations.
# T1 sequence (P10275 whole entry T878A): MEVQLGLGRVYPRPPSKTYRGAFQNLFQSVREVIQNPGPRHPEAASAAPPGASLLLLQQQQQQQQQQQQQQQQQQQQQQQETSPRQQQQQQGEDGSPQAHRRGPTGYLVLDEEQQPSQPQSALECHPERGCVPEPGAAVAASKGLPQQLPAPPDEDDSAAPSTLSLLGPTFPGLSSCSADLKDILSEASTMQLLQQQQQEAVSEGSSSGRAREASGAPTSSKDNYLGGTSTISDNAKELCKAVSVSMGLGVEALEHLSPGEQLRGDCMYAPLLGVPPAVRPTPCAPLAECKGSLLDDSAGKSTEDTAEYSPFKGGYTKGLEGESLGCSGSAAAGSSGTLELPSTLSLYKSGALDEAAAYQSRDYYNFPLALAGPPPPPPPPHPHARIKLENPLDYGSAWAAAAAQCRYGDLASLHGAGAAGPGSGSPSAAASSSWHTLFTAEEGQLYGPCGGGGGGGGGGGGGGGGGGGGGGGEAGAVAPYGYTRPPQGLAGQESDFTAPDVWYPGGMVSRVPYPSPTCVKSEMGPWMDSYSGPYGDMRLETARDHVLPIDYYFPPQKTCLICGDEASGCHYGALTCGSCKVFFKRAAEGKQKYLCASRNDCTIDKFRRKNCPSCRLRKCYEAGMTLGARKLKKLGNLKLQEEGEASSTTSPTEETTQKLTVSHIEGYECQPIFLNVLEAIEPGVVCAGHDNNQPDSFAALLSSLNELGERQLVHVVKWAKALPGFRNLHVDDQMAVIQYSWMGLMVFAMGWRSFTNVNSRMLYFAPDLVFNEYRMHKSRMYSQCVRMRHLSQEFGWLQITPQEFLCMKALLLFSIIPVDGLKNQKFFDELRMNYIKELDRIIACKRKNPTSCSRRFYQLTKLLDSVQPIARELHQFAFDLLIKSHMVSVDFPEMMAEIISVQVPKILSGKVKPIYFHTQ
# Chain of AR AF2 site (P10275 664-920 limits assumed): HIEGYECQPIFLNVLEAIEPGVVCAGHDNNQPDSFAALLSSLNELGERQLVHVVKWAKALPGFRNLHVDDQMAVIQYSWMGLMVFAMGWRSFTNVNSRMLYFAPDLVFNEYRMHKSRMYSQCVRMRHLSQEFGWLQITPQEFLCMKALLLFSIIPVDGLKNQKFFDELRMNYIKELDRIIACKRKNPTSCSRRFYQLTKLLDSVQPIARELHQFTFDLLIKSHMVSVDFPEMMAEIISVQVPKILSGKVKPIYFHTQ
Compound,change of expression of genotoxin-responsive genes (AR target genes; 31 genes),"FKBP5 gene expression fold change vs R1881 treatment only (AR target genes; 14449 400 nM + 1 nM R1881, 24 h, p 0.08)",ATF3 gene expression fold change (AR target genes; 14449 400 nM + R1881),CASP1 gene expression fold change (AR target genes; 14449 400 nM + R1881),XPC gene expression fold change (AR target genes; 14449 400 nM + R1881),AR pulldown of the PSA and FKBP5 enhancer [1],stability in media (Stability in media),displacement of peptide in the AF2 binding site (AR AF2 site),androgen displacement from AR HBS [2]
Brc1ncn(-c2csc(N3CCOCC3)n2)c1Br [Compound 14449],None of the genotoxin-responsive genes showed any significant change,0.81,0.99,1.00,1.03,reduced AR pulldown,fully stable in media,–,–
"c1ccc(-c2csc(N3CCOCC3)n2)cc1 [Compound 14228, 4-(4-phenylthiazol-2-yl)morpholine]",–,–,–,–,–,–,–,Neither does it displace the peptide,does not displace androgen

# Source: patent US10011573B2, “Human androgen receptor DNA-binding domain (DBD) compounds as therapeutics and methods for their use” (The University of British Columbia, priority 2014, dated 2018)
